In US20240123015A1, “COMPOSITION FOR STRENGTHENING, DEVELOPING, DIFFERENTIATING, OR REGENERATING MUSCLE, OR PREVENTING, AMELIORATING, OR TREATING MUSCLE LOSS OR MUSCLE FATIGUE COMPRISING SCHIZONEPETA TENUIFOLIA EXTRACT AS EFFECTIVE COMPONENT” (KOREA INSTITUTE OF ORIENTAL MEDICINE, priority 2021, published 2024):

Experiments:
C2C12 cells = test: Viability recovery of muscle cells under H2O2 oxidative stress (CCK8); format: cell-based, mouse; details: H2O2 250 μM alone; compared to control group
Protocol: Mouse myoblast cell line (i.e., C2C12 cells) was purchased from ATCC (Manassas, VA, USA) and cultured at conditions of 37° C. and 5% CO2 in DMEM medium containing 10% fetal bovine serum. Once the cultured cells reached 80% confluency, the medium was replaced with other DMEM medium (Gibco) containing 2% horse serum, 100 units/ml of penicillin, and 100 μg/ml of streptomycin to induce cell differentiation. The cells were cultured for 5 days after replacing the medium to induce cell differentiation. The culture medium was replaced with fresh medium every 2 days during the differentiation process. To induce muscular atrophy, the cells were treated with H2O2 at a final concentration of 250 μM. Concurrently, the cells were treated with Schizonepeta tenuifolia extract obtained from Example 1 at a concentration of 100 μg/ml. After treating the cells with Schizonepeta tenuifolia extract and culturing them for 24 hours, the medium was replaced with fresh medium containing 10% CCK8 (Dojindo) solution. After incubating for 2 hours, the absorbance was measured at 450 nm to evaluate cell viability. Each sample was measured three times, and the mean value was calculated.

BALB/c mice [1] = test: Fatigue-related factors (LDH, AST, ALT) in blood serum; format: in vivo, mouse; details: dexamethasone 25 mg/kg
Protocol: The extract prepared as a dry powder was dissolved in physiological saline and used for the administration. After two weeks of oral administration of the test sample, the evaluation was made by Rotarod test and also in terms of a change in fatigue-related factors in the blood.
At the end of the 1-hour time point after the oral administration of each test material for 2 weeks, the Rotarod test was carried out, and blood samples were collected immediately from the animal heart. The collected blood was centrifuged at 3,000 rpm, 4° C. for 15 minutes to separate the blood serum, which was then stored at −70° C. until further analysis. Thereafter, concentrations of lactate dehydrogenase (LDH), aspartate aminotransferase (AST), and alanine aminotransferase (ALT) in the blood serum were measured by using a biochemical analyzer (AU480 chemistry analyzer, Beckman Coulter Inc., Brea, CA, USA).

BALB/c mice [2] = test: Rotarod test in dexamethasone-induced animal model of fatigue; format: in vivo, mouse; details: positive control 50 mg/kg, 2 weeks, 20 rpm
Protocol: A 6-week-old male BALB/c mice was purchased from Orient Bio Inc. (Seongnam, South Korea) and used them for the test. The test animals were acclimated for one week in a breeding environment with a temperature of 25±2° C., humidity of 50±5%, and a 12-hour light-dark cycle, while being provided with ad libitum access to a standard diet (AIN-76A diet) and water. After the acclimation period, the animals were used for the test. The animal test of the present invention was carried out after obtaining an approval of Korea Institute of Oriental Medicine Institutional Animal Care and Use Committee.
The acclimated mice were randomly assigned to different groups: the normal group (Normal), the group administered with dexamethasone group (25 mg/kg), the group administered with Schizonepeta tenuifolia extract (HG, 200 mg/kg), and the positive control group administered with oxymetholone (50 mg/kg). Each group consisted of 6 mice. […]
Mouse was orally administered for 2 weeks with each test material, and then placed on the rod of a Rotarod apparatus and rotated at a speed of 20 rpm. The time until the mouse fell off the rod was then measured. […] The mean value of the three measurements for each animal was taken as the test result value, and the mean and standard deviation were calculated for each group of the six animals.

`OO` [H2O2] was tested, and the cell viability (C2C12 cells) was “statistically significant decrease in cell viability”.

`C[C@@H]1C[C@H]2[C@@H]3CCC4=CC(=O)C=C[C@]4(C)[C@@]3(F)[C@@H](O)C[C@]2(C)[C@@]1(O)C(=O)CO` [dexamethasone] was tested, and the “LDH level in blood serum” value (BALB/c mice [1]) was “elevated levels”, the “ALT level in blood serum” value (BALB/c mice [1]; compared to normal group) was “statistically significant increase” and the “AST level in blood serum” value (BALB/c mice [1]; compared to normal group) was “statistically significant increase”.

`C[C@]12C/C(=C/O)C(=O)C[C@@H]1CC[C@@H]1[C@@H]2CC[C@@]2(C)[C@H]1CC[C@]2(C)O` [oxymetholone] was tested, and the “hanging time on the Rotarod” value (BALB/c mice [2]) was “statistically significant increase in the time spent hanging on the Rotarod”.
